{
  "source": "patent US5451518A",
  "about": "“Purified human ceramide-activated protein kinase” (Sloan-Kettering Institute for Cancer Research, priority 1992, dated 1995)",
  "key": {"[1]": {"test_system": "EL-4 cells", "assay": "Sphingomyelin levels in intact EL-4 cells", "type": "cell-based, murine", "protocol": "(§1) Time course (FIG. 12A) and dose response (FIG. 12B). Cells were grown to growth arrest (1-1.5×10^6 cells ml^-1) in DME/Ham's F12 medium (1:1, v/v) containing 10% horse serum and for 48 hours [^3 H]choline (1 μCi ml^-1). On the day of an experiment, cells were resuspended back into the same medium at 10×10^6 cells ml^-1 and stimulated with 40 ng ml^-1 IL-1β for the indicated times (FIG. 12A) or for 30 minutes with increasing concentrations of IL-1β (FIG. 12B). Human IL-1β may be obtained using methods well knownto those skilled in the art. Reactions were terminated with CHCl3 :CH3 OH:HCl (100:100:1) containing 10 mM EDTA (82). Lipids in the organic phase extract were dried under N2 and subjected to mild alkaline hydrolysis (0.1M methanolic KOH for 1 hour at 37° C.) to remove glycerophospholipids. Spingomyelin was resolved by thin-layer chromatography (TLC) using CHCl3 :CH3 OH:CH3 COOH:H2 O (60:30:8:5) as solvent, identified by iodine vapor staining, and quantified by liquid scintillation spectrometry. As previously reported, the use of [^3 H]choline as a measure of sphingomyelin content was validated by simultaneous phospholipid phosphorus measurements (62). Each value represents the mean ± SEM of triplicate determinations from four experiments in (FIG. 12A), and one representative of four similar studies performed in triplicate in (FIG. 12B).\nThe murine thymoma EL-4 cell line is a well-defined IL-1 responsive cell line that expresses functional IL-1 receptors (61, 62). Upon stimulation with IL-1, these cells up-regulate the IL-2 receptor and secrete IL-2 (62). Initial studies were designed to investigate the effects of IL-1β on cellular sphingomyelin content. Cells, grown in Dulbecco's Modified Eagle's (DME)/Ham's F-12 medium containing 10% horse serum and [^3 H]choline (1 μCi ml^-1), were resuspended back into the same medium at 10×10^6 cells ml^-1 and stimulated with IL-1β. IL-1β is commercially available."}, "[2]": {"test_system": "EL-4 cells", "assay": "Ceramide levels in intact EL-4 cells", "type": "cell-based, murine", "protocol": "as §1\nCells were stimulated as in FIGS. 12A and 12B with IL-1β (40 ng ml^-1) and ceramide contained within the organic phase extract quantified enzymatically using the E. coli diacylglycerol kinase reaction (57). Lipids were resolved by TLC using CHCl3 :CH3 OH:CH3 COOH (65/15/5) as solvent, autoradiographed and quantified by liquid scintillation spectrometry. Each value represents the mean ± SEM of triplicate determinations from 10 experiments."}, "[3]": {"test_system": "ceramide-activated protein kinase", "protocol": "Homogenates were centrifuged at 500×g for 5 minutes to remove nuclei and at 200,000×g for 30 minutes to prepare microsomal membranes. Membranes were resuspended into homogenizing buffer (2.2 μg membrane protein μl^-1). For assay of kinase activity, the reaction mixture contained 20 μl of microsomal membrane, 40 μl EGFR peptide (4 mg ml^-1 in 25 mM Hepes, pH 7.4) and 100 μl buffer (50 mM HEPES, pH 7.4, 20 mM MgCl2) (40). Phosphorylation was initiated at 22° C. by addition of 40 μl [γ-^32 P] ATP (100 μM final concentration) and terminated at the indicated times by addition of 40 μl of 0.5M ATP in 90% formic acid. Phosphorylated peptide was eluted from a C18 Sep pak cartridge (Millipore), lyophilized, and resolved by C18 reverse phase HPLC using a linear gradient of acetonitrile. […] All assays were performed under conditions determined as linear for time and enzyme concentration. Enzyme activity was determined from the percent conversion of substrate to product and the specific radioactivity of [γ-^32 P] ATP. […] Values (mean ± range) represent duplicate determinations from two experiments.\nActivity was measured by the transfer of ^32 P from the γ-position of ATP to EGFR peptide (AA 663-681 of the EGFR). The effect of IL-1β on kinase activity was determined using microsomal membranes derived from cells stimulated with IL-1β."}, "[4]": {"test_system": "sphingomyelin (EL-4 nuclei-free supernate)", "assay": "Sphingomyelin levels in EL-4 cell-free system", "type": "biochemical, murine", "settings": "IL-1β, n=10, p<0.005 vs. control", "protocol": "(§2) Thereafter, supernates (300 μg incubation^-1 in 25 μl ) were added to a reaction mixture (total volume 250 μl ) as described in FIG. 14. For studies measuring lipid levels, incubations were stopped by extraction of lipids into an organic phase and resolved as described in FIGS. 12A, 12B and 13. For studies measuring kinase activity, incubations contained EGFR peptide and [^32 P]ATP, and phosphorylated peptide was quantified as described in FIG. 14. Background activity was subtracted from each point. Values (mean) represent data from two experiments for sphingomyelin performed in triplicate, three experiments for ceramide performed in triplicate, and five experiments for ceramide-activated protein kinase activity performed in duplicate.\n(§3) Early kinetics of activation of a potential signaling system provide some support that the pathway might be involved in the signaling process. However, signal transduction pathways are highly regulated and often interrelated (70). […] To provide additional support for tight coupling of the sphingomyelin pathway to activation of the IL-1β receptor, studies were performed with subcellular fractions derived from EL-4 cells. […] These effects were quantitatively similar to those determined in the intact cells."}, "[5]": {"test_system": "ceramide (EL-4 nuclei-free supernate)", "assay": "Ceramide levels in EL-4 cell-free system", "type": "biochemical, murine", "settings": "IL-1β, n=6, p<0.005 vs. control", "protocol": "as §2, §3"}, "[6]": {"test_system": "ceramide-activated protein kinase", "assay": "Ceramide-activated protein kinase activity in EL-4 cell-free system", "type": "biochemical, murine", "settings": "IL-1β", "protocol": "as §2, §3"}, "[7]": {"test_system": "proline-directed protein kinase activities other than ceramide-activated protein", "assay": "Cytosolic kinase activity toward EGFR peptide in EL-4 cells", "type": "cell-based, murine"}, "[8]": {"test_system": "protein kinase C", "assay": "Protein kinase C activity by phosphorylation of lysine-rich histone in EL-4 cells", "type": "cell-based, murine", "settings": "membrane and cytosolic fractions"}, "[9]": {"test_system": "EL-4 cells", "assay": "Phosphatidylcholine content in EL-4 cells", "type": "cell-based, murine", "settings": "IL-1β"}, "[10]": {"test_system": "human natural killer-like cell line, YT", "assay": "Ceramide generation in YT cells", "type": "cell-based", "settings": "preliminary studies"}, "[11]": {"test_system": "EL4 cells", "settings": "24 h"}},
  "note": "“Also recorded” adds a separate entry of the source.",
  "data": [
    {"substance": "IL-1β: Human IL-1β", "values": [
      {"measurement": "sphingomyelin content after IL-1β", "setting": "[1]; 40 ng ml^-1, 30 minutes, baseline 800±14, mean ± SEM, p<0.005", "value": "648±16", "unit": "pmol 10^6 cells^-1"},
      {"measurement": "time at which sphingomyelin reduction was detectable", "setting": "[1]; IL-1β 40 ng ml^-1", "value": "≤ 2", "unit": "min"},
      {"measurement": "concentration for maximal effect, sphingomyelin", "setting": "[1]; IL-1β, 30 minutes", "value": 10, "unit": "ng/mL"},
      {"measurement": "effective concentration, sphingomyelin", "setting": "[1]; IL-1β, 30 minutes", "value": 0.01, "unit": "ng/mL"},
      {"measurement": "effective dose (ED50), sphingomyelin hydrolysis", "setting": "[1]; IL-1β, 30 minutes", "value": "≈ 2 ng ml^-1"},
      {"measurement": "effect on sphingomyelin (in words)", "setting": "[1]; intact EL-4", "value": "rapid reduction in sphingomyelin"},
      {"measurement": "ceramide response (in words)", "setting": "[2]; EL-4, maximally effective concentrations (n=5), SMase 1×10^-3 U ml^-1", "value": "elevation in ceramide levels"},
      {"measurement": "ceramide content", "setting": "[2]; IL-1β, 2 minutes, from 360, p<0.005", "value": 403, "unit": "pmol 10^6 cells^-1"},
      {"measurement": "maximum ceramide content", "setting": "[2]; IL-1β, 15 minutes, from 360", "value": 450, "unit": "pmol 10^6 cells^-1"},
      {"measurement": "time at which increase in ceramide content was evident", "setting": "[2]; IL-1β, n=4", "value": "≤ 30", "unit": "s"},
      {"measurement": "kinase activity after IL-1β", "setting": "[3]; 10 ng ml^-1, 2 minutes, from 5", "value": "11 pmol per minute per milligram (pmol min^-1 mg^-1)"},
      {"measurement": "concentration for maximal effect, kinase activity", "setting": "[3]; IL-1β", "value": 10, "unit": "ng/mL"},
      {"measurement": "effective concentration, kinase activity", "setting": "[3]; IL-1β", "value": 0.03, "unit": "ng/mL"},
      {"measurement": "effective dose (ED50), kinase activity", "setting": "[3]; IL-1β", "value": "≈ 2 ng ml^-1"},
      {"measurement": "time at which increase in kinase activity was detectable", "setting": "[3]; IL-1β 10 ng ml^-1", "value": 30, "unit": "s"},
      {"measurement": "increase in kinase activity", "setting": "[3]; IL-1β 10 ng ml^-1, 2 minutes", "value": "2.1 -fold of control"},
      {"measurement": "time to maximal kinase activity", "setting": "[3]; IL-1β 10 ng ml^-1, p<0.005", "value": 2, "unit": "min"},
      {"measurement": "reduction in sphingomyelin content (in words)", "setting": "[4]", "value": "rapid reduction in sphingomyelin content; also recorded: detected at i minute"},
      {"measurement": "increase in ceramide content (in words)", "setting": "[5]", "value": "quantitative increase in ceramide content; also recorded: detected at i minute"},
      {"measurement": "ceramide-activated protein kinase activity (in words)", "setting": "[6]", "value": "Ceramide-activated protein kinase activity also increased"},
      {"measurement": "cytosolic kinase activity (in words)", "setting": "[7]", "value": "not enhanced"},
      {"measurement": "protein kinase C activity (in words)", "setting": "[8]", "value": "not enhanced in either membrane or cytosolic fractions"},
      {"measurement": "phosphatidylcholine content", "setting": "[9]", "value": "unchanged"},
      {"measurement": "generation of ceramide in YT cells", "setting": "[10]", "value": "induces rapid generation of ceramide"},
      {"measurement": "IL-2 secretion in combination with TPA (in words)", "setting": "[11]", "value": "stimulated secretion maximally"},
      {"measurement": "IL-2 secretion, ±TPA", "setting": "[11]; Table I, TPA 20 ng ml^-1, mean ± range, nd = not detectable", "value": "261 ± 2"}
    ]}
  ]
}
